# Key:
# Format in all cases: in vivo
# [1] = system: dysuria model rat (STZ-treated female Wistar rats); assay: Effects of cholinergic agent and α1 blocker on vesicourethral dyssynergia of dysuria model rat (Comparative Example 2); conditions: STZ model four weeks after preparation; bethanechol 1 mg/kg i.v., tamsulosin 0.3 mg/kg i.v.; under urethane anesthesia; vs control (physiological saline)
# Procedure: The effects of a cholinergic agent (detrusor contracting agent: bethanechol) and an al blocker (urethra relaxation agent: tamsulosin) on vesicourethral dyssynergia were evaluated.
# The dysuria models in the present example were prepared by treating 10-week-old female Wistar rats with STZ (65 mg/kg, i.p.). The Sham group was prepared by treating the rats with a citric acid buffer solution instead of STZ. Four weeks after the preparation of the models, the intravesical and urethral pressure was measured under urethane anesthesia, thereby evaluating the effects of the test drugs (vehicle: physiological saline solution, bethanechol 1 mg/kg i.v., and tamsulosin 0.3 mg/kg i.v.) with regard to the cooperation of the bladder and the urethra.
# [2] = system: dysuria model rat (STZ-treated female Wistar rats); assay: Effect of ameliorating vesicourethral dyssynergia in dysuria model rat (Test Example 1); conditions: STZ 65 mg/kg i.p. model; 30 mg/kg p.o. twice a day for four weeks starting four weeks after model preparation; measured under urethane anesthesia; control (6% Gelucire) 3.7±0.7
# Procedure: The effect of 3-(15-hydroxypentadecyl)-2,4,4-trimethyl-2-cyclohexene-1-one (hereinafter referred to as “Compound 1 of the present invention”) on vesicourethral dyssynergia was evaluated.
# The dysuria models in this example were prepared by treating 10-week-old female Wistar rats with streptozotocin (hereinafter referred to as STZ; in an amount of 65 mg/kg, i.p.). The Sham group was prepared by treating the rats with a citric acid buffer solution instead of STZ. The test drugs (vehicle: 6% Gelucire, Compound 1 of the present invention 30 mg/kg) were orally administered to each group after four weeks from the preparation of the models (at a time dysuria is assumed to be developed) twice a day for four weeks. On the day following the final administration, the intravesical and urethral pressure was measured under urethane anesthesia, thereby evaluating the cooperation of the bladder and the urethra.
# Further, in contrast to the control group receiving vehicle (6% Gelucire) having a time lag of 3.7±0.7 seconds, the time lag in the group receiving Compound 1 of the present invention was reduced to 2.0±0.4 seconds, showing a significant effect of ameliorating vesicourethral dyssynergia.
# [3] = system: dysuria model rat (STZ-treated female Wistar rats); assay: Effect on maximum voiding quantity in dysuria model rat (Test Example 2); conditions: 30 mg/kg p.o. twice a day for four weeks, under urethane anesthesia, Sham 1.45 ± 0.14, Control 2.25 ± 0.68, *p < 0.05 vs. control
# Procedure: The dysuria models in this example were prepared in the same manner as in Test Example 1 by treating 10-week-old female Wistar rats with STZ (65 mg/kg, i.p.). The test drugs (vehicle: 6% Gelucire, Compound 1 of the present invention 30 mg/kg) were orally administered to each group after four weeks from the preparation of the models (at a time dysuria is assumed to be developed) twice a day for four weeks. On the day following the final administration, the maximum voiding quantity was measured under urethane anesthesia.
# [4] = system: model rat having spinal cord injury (female Wistar rats); assay: Effect on voiding dysfunction based on vesicourethral dyssynergia in spinal cord injury model rat (Test Example 3); conditions: spinal cord injury model (Th8-9); 250 mg/kg p.o. once a day for four weeks; vs control group (6% Gelucire)
# Procedure: The effect of Compound 1 of the present invention on dysuria was evaluated using a model rat having spinal cord injury, which is a typical disease causing dysuria due to vesicourethral dyssynergia.
# The dysuria models in this example were prepared by placing a 40 g weight on the spinal cord in the eighth to ninth thoracic vertebrae (Th8-9) of 7-week-old female Wistar rats for 30 minutes.
# The test drugs (vehicle: 6% Gelucire, Compound 1 of the present invention 250 mg/kg) were orally administered to each group from the day following the preparation of the models once a day for four weeks. On the day following the final administration, cystometry was performed in a wakeful state, thereby evaluating the voiding function (micturition efficiency).
Compound,effect on extension of the time lag between the bladder contraction and the urethra relaxation [1],time lag between the bladder contraction and the urethra relaxation [2] [s],Maximum voided volme [3],micturition efficiency (cystometry in a wakeful state) [4]
"CC(C[N+](C)(C)C)OC(N)=O (centres unmarked) [Bethanechol, bethanechol]",no effects,–,–,–
"CC1=C(CCCCCCCCCCCCCCCO)C(C)(C)CCC1=O [Compound 1 of the present invention, 3-(15-hydroxypentadecyl)-2,4,4-trimethyl-2-cyclohexene-1-one]",–,2.0 ± 0.4,4.44 ± 0.85* mL,significant increase in micturition efficiency
CCOc1ccccc1OCCN[C@H](C)Cc1ccc(OC)c(S(N)(=O)=O)c1 [tamsulosin],no effects,–,–,–

# Reference: patent US9271948B2, “Agent for improving vesicourethral dyssynergia” (TAIHO PHARMACEUTICAL CO., LTD., priority 2013, dated 2016)
